Format in all cases: in vivo, horse
In experiment [1] the test system is connective tissue injuries (tendon/ligament lesions). Description: Post-treatment maintenance dose, double-blind randomised placebo-controlled trial (Example 10). An excerpt: Maintenance dose of vitamin A palmitate (retinyl palmitate) in a vehicle, delivered in dry feed at 8,000 IU per kg feed dry matter.
The methodology and subjects of the investigation comprise those of Example 7.
The trial was a double-blind randomised controlled trial.

Another experiment concerns tendon/ligament injuries. Put plainly: Single armed pilot trial in equine connective tissue injuries, lesion size by ultrasonography (Example 7). The method, then:
The time since injury of each horse was noted. […] Side effects and tolerability were also recorded.
14 horses with 15 injured limbs were enrolled in the study between March and May 2021. The injuries comprised 9 tendon and 6 ligament injuries, with 12 injuries on the left side of the horse and 3 on the right. The mean time since injury was ˜ 12 months. The tendon injuries comprised 2 acute injuries (<1 month old) and 7 chronic injuries, with a mean time since injury of 13.1 months, and a range of 9-20 months. The ligamentous injuries comprised 6 chronic injuries, with a mean time since injury of 14.3 months and a range of 4-30 months.
All statistical analysis was performed on SPSS v27. Missing values were handled by last observation carried forward. Descriptive statistics were used to describe baseline and follow-up values. The results were first tested for normality using the Shapiro-Wilk test. The results at weeks 3, 5 and 7 were then analysed compared to baseline using two-tailed paired Student's t-tests once normality was proven. One-tailed Pearson correlation test was performed to determine if outcomes was correlated with time since injury as we hypothesise that older, more established injuries may benefit less from our supplementation.

The subject of another experiment is injured tendon/ligament. Description: Effect of activity level on connective tissue improvement (Example 11). The note with it: week 7, full-treatment doses. The method, then: The vitamin A supplement used, its administration, and the subjects of the investigation comprise those of Example 7. Improvement (as a % of baseline) of the injured tendon/ligament was performed at 7 weeks into the trial. All 14 horses were administered full-treatment doses of vitamin A supplement from week 0 to week 7 whilst being put to work. 7 horses were put on light/no work and 7 on full work. The allocation of each horse into one of the two groups was determined by the respective owner of the horse, who decided based on whether they could afford for the horse to be put on light work (and thus investigate the isolated effect of vitamin A supplement on lesion progression) or whether the horse was required to be put back to full work.

The subject of a further experiment is Tendon injury. Put plainly: Echogenicity ratio of tendon lesion or injured tendon to adjacent healthy tendon (Example 9). An excerpt: Structures composed of different tissue will have different echogenicities. The health of a tissue such as a tendon can be assessed by comparing the echogenicity of the tissue with that of a corresponding healthy tissue. Healthy tendons comprising native tissue and normal architecture are usually hyperechoic and appear white on the sonogram; they are capable of reflecting ultrasound that is cast over the tissue. An injured tendon comprising a lesion will appear as less hyperechoic, and more hypoechoic as tendon fibers are interrupted and defects are usually filled with fluid, blood, or fat. Severe lesions will be anechoic, and will display as completely dark on the sonogram. […] The echogenicity of a tendon lesion was assessed by comparing grey scale statistics of the tendon lesion with the values of healthy adjacent tendon tissue (FIG. 18(b)). Due to equine anatomy, there is always a directly adjacent healthy tendon to use as a control (ultrasonography is […] by depth of tissue). The statistics comprised determining the mean pixel intensity at a number of random points on the lesion and the healthy tendon, and calculating a mean value for the echogenicity of each tissue. A ratio of mean echnogenicity of the lesion and the healthy tissue was determined to assess the extent of damage/healing at the lesion. Vitamin A supplement used, its administration, and the subjects investigated, comprise those of Example 7.

Another experiment relates to tendon/ligament lesions. Put plainly: Equine tendon/ligament lesions from original injury through treatment (Example 8). The note with it: oral 160,000 IU once per day. The method, then:
Side effects and tolerability were also recorded. The administration of vitamin A supplement, and the vitamin A supplement used, were the same as that of Example 7. 7 horses with 7 injured limbs were enrolled in the study between March and May 2021. The injuries comprised 3 tendon and 4 ligament injuries. The inclusion criteria were polo horses with diagnosed tendon/ligament injuries regardless of time since injury. The exclusion criteria were horses with acute connective tissue injuries. All statistical analysis was performed on SPSS v27. Missing values were handled by last observation carried forward. Descriptive statistics were used to describe baseline and follow-up values. The results were first tested for normality using the Shapiro-Wilk test. The results at weeks 3, 5 and 7 were then analysed compared to baseline using two-tailed paired Student's t-tests once normality was proven.

1 molecule from patent US20240293464A1, “TISSUE REPAIR” (priority 2021, published 2024) can be followed below.

`CCCCCCCCCCCCCCCC(=O)OC/C=C(C)/C=C/C=C(C)/C=C/C1=C(C)CCCC1(C)C` [vitamin A supplement, Vitamin A palmitate]: in experiment [1] (maintenance dose 80,000 IU/day, compared with placebo group), the “Change in lesion size from week 7 to week 14, intragroup” value is reported as −24.5%. The “Mean lesion size of the maintenance dose group” value in experiment [1] (week 14, after 7 weeks of 80,000 IU/day following 7 weeks of full dose, 31.73% at week 7) is given as about 20.00%. Besides, the “Lesion health on ultrasonogram in one re-injured subject” value in experiment [1] (week 14, after 7 weeks of maintenance dose, FIG. 21) is “the health of this particular lesion deteriorated”. Also, the Mean lesion size in the experiment with tendon/ligament injuries (baseline, 15 injuries) came to 41.44%; with tendon/ligament injuries (week 3, oral 160,000 IU once per day, p=0.169 vs baseline), 35.87%; in the experiment with tendon/ligament injuries (week 5, oral 160,000 IU once per day, p<0.001 vs baseline) it was 28.37%; in the experiment on tendon/ligament injuries (week 7, oral 160,000 IU once per day, p=0.006 vs baseline), 31.73%. In addition, the “Percentage improvement, baseline to week 7” value with tendon/ligament injuries (outlier at 20 months since injury, complete avulsion of the ligament) is reported as −25%; in the experiment with tendon/ligament injuries (two outlier subjects at 12 months since injury), 100%. In addition, the Improvement from baseline in the experiment on injured tendon/ligament (horses on full work (n=7)) came out at 45.05%; with injured tendon/ligament (horses on light or no work (n=7)), 30.35%. Besides, the “% increase of mean echogenicity ratio (lesion/healthy tendon)” value in the experiment on Tendon injury (baseline to week 7) came out at 32.7%. Moreover, the “Mean echogenicity ratio of tendon lesion to adjacent healthy tendon” value was 0.52 with Tendon injury (baseline, 1 = perfect regeneration of native tendon) and 0.69 in the experiment with Tendon injury (week 7, oral 160,000 IU once per day, 1 = perfect regeneration). Further, the “Mean echogenicity ratio of injured tendon (area of lesion excluded) to adjacent healthy tendon” value in the experiment on Tendon injury (week 0) is recorded as 0.76; in the experiment with Tendon injury (week 7, oral 160,000 IU once per day), 0.82. Also, in the experiment on tendon/ligament lesions (ligaments, outlier excluded (n=3)), the “Change in ligament lesion size, baseline to week 7” value is “reduction in the size of two of the three lesions”. The “Mean improvement in lesion size, baseline to week 7” value with tendon/ligament lesions (tendons n=3, chronic injuries, p=0.04) is reported as 30.62%.
